Data published in patent US20230146455A1, “TREATMENT OF INFLAMMATORY DISEASES WITH PEPTIDES AND PHARMACEUTICAL COMPOSITIONS” (Yuyu Pharma, Inc., priority 2020, published 2023).
“And” between values parts separate entries of the source, which are not always exact repeats. Identical values can stand only once. Where a SMILES comes first, the peptide text is derived from it. [ ]: non-standard residue; d: D form. Hyp = O=C(O)[C@@H]1C[C@@H](O)CN1

What was measured:
[1] = tested on: GM-CSF; assay: Example 9 Luminex, LPS hPBMCs: GM-CSF; type: cell-based, human
Description: (§1) Treatment Human PBMCs were pretreated with YY-101, YDE-011 and YDE-043 or reference compound; Xiidra® at various concentration (ranging from 1 nM to 100 uM) for 2 h before stimulation. An equal volume of 0.5% DMSO was used as a vehicle control. Then, the cells were treated with LPS at 5 ug/ml. The supernatants from treated cells were harvested at 24 h and placed in a 96 well for Luminex cytokine & chemokine profiling using a Luminex 200 multiplex assay (Luminex; R&D system, USA).
(§2) The main study arm with triplicate wells per group in a 24-well plate: • 1. Blank • 2. PBMC: 0.5% DMSO • 3. PBMC+LPS (5 ug/ml) • 4. PBMC+YY-101 100 uM • 5. PBMC+YY-101 10 uM • 6. PBMC+YY-101 1 uM • 7. PBMC+YY-101 0.1 uM • 8. PBMC+YY-101 0.01 uM • 9. PBMC+LPS (5 ug/ml)+Xiidra®100 uM • 10. PBMC+LPS (5 ug/ml)+Xiidra® 10 uM • 11. PBMC+LPS (5 ug/ml)+Xiidra® 1 uM • 12. PBMC+LPS (5 ug/ml)+Xiidra®0.1 uM • 13. PBMC+LPS (5 ug/ml)+Xiidra®0.01 uM • 14. PBMC+LPS (5 ug/ml)+Xiidra®0.001 uM • 15. PBMC+LPS (5 ug/ml)+YY-101 100 uM • 16. PBMC+LPS (5 ug/ml)+YY-101 10 uM • 17. PBMC+LPS (5 ug/ml)+YY-101 1 uM • 18. PBMC+LPS (5 ug/ml)+YY-101 0.1 uM • 19. PBMC+LPS (5 ug/ml)+YY-101 0.01 uM • 20. PBMC+LPS (5 ug/ml)+YY-101 0.001 uM • 21. PBMC+LPS (5 ug/ml)+YDE-011 100 uM • 22. PBMC+LPS (5 ug/ml)+YDE-011 10 uM • 23. PBMC+LPS (5 ug/ml)+YDE-011 1 uM • 24. PBMC+LPS (5 ug/ml)+YDE-011 0.1 uM • 25. PBMC+LPS (5 ug/ml)+YDE-011 0.01 uM • 26. PBMC+LPS (5 ug/ml)+YDE-011 0.001 uM • 27. PBMC+LPS (5 ug/ml)+YDE-043 100 uM • 28. PBMC+LPS (5 ug/ml)+YDE-043 10 uM • 29. PBMC+LPS (5 ug/ml)+YDE-043 1 uM • 30. PBMC+LPS (5 ug/ml)+YDE-043 0.1 uM • 31. PBMC+LPS (5 ug/ml)+YDE-043 0.01 uM • 32. PBMC+LPS (5 ug/ml)+YDE-043 0.001 uM
(§3) Multiplex assay was used to measure 30 cytokines and chemokines. The 1:2, 1:10 and 1:200 diluted cell supernatant and serial dilution of the standard were dispensed into a 96 well plate at 50 ul/well. Then, the pre-mixed cocktail of antibody-coated magnetic beads was dispensed at 50 ul/well and incubated at room temperature for 2 h in a horizontal orbital microplate shaker at 800±500 rpm. The beads were washed using a magnetic device to prevent loss. The biotin-antibody was dispensed in 50 ul of each well and incubated at room temperature for 1 h in a shaker at 800±500 rpm. After washing, streptavidin-PE was added at 50 ul/well and incubated at room temperature for 30 min in a shaker under the same conditions. Finally, after washing, wash buffer (100 ul/well) was added to the plate and incubated in a shaker for 2 min. The Luminex™ 200 setting were set according to the manufacturer's protocol. The data was calculated with a standard five-parameter logistic nonlinear regression analysis of the data (xPonent software 4.2, USA). The levels of cytokine/chemokine are normalized to the live cell counts (1×10^5 cells/mL) and presented as concentrations per mL (pg/mL or ng/mL).

[2] = tested on: IL-6; assay: Example 9 Luminex, LPS hPBMCs: IL-6; type: cell-based, human; details: Bead IL-6, PBMC + LPS(5 ug/ml)
Description: as §1, §2, §3

[3] = PBMC + LPS(5 ug/ml) + test article 0.001 uM, Mean
[4] = PBMC + LPS(5 ug/ml) + test article 0.001 uM, single replicates
[5] = PBMC + LPS(5 ug/ml) + test article 0.01 uM, Mean
[6] = PBMC + LPS(5 ug/ml) + test article 0.01 uM, single replicates
[7] = PBMC + LPS(5 ug/ml) + test article 0.1 uM, Mean
[8] = PBMC + LPS(5 ug/ml) + test article 0.1 uM, single replicates
[9] = PBMC + LPS(5 ug/ml) + test article 1 uM, Mean
[10] = PBMC + LPS(5 ug/ml) + test article 1 uM, single replicates
[11] = PBMC + LPS(5 ug/ml) + test article 10 uM, Mean
[12] = PBMC + LPS(5 ug/ml) + test article 10 uM, single replicates
[13] = PBMC + LPS(5 ug/ml) + test article 100 uM, Mean
[14] = PBMC + LPS(5 ug/ml) + test article 100 uM, single replicates

Compound: CC(C)C[C@H](NC(=O)CNC(=O)[C@H](CC(C)C)NC(=O)[C@H](CCC(N)=O)NC(=O)CNC(=O)[C@@H]1C[C@@H](O)CN1)C(=O)N[C@@H](C)C(=O)NCC(=O)N1CCC[C@H]1C(=O)N[C@@H](CCCCN)C(=O)O [YDE-011] (H-[Hyp]GQLGLAGPK-OH)
- GM-CSF Concentration [1, 3]: 97.0 pg/mL
- GM-CSF conc/live cell [1, 3]: 18.3 pg/10^5
- GM-CSF Concentration [1, 4]: 92.5 pg/mL and 96.3 pg/mL and 102.1 pg/mL
- GM-CSF conc/live cell [1, 4]: 20.6 pg/10^5 and 16.6 pg/10^5 and 17.6 pg/10^5
- GM-CSF Concentration [1, 5]: 103.2 pg/mL
- GM-CSF conc/live cell [1, 5]: 17.9 pg/10^5
- GM-CSF Concentration [1, 6]: 90.4 pg/mL and 108.0 pg/mL and 111.3 pg/mL
- GM-CSF conc/live cell [1, 6]: 14.3 pg/10^5 and 17.4 pg/10^5 and 21.8 pg/10^5
- GM-CSF Concentration [1, 7]: 95.6 pg/mL
- GM-CSF conc/live cell [1, 7]: 16.7 pg/10^5
- GM-CSF Concentration [1, 8]: 100.5 pg/mL and 90.8 pg/mL and 95.4 pg/mL
- GM-CSF conc/live cell [1, 8]: 15.2 pg/10^5 and 18.2 pg/10^5 and 16.7 pg/10^5
- GM-CSF Concentration [1, 9]: 93.9 pg/mL
- GM-CSF conc/live cell [1, 9]: 18.7 pg/10^5
- GM-CSF Concentration [1, 10]: 96.3 pg/mL and 92.5 pg/mL and 92.9 pg/mL
- GM-CSF conc/live cell [1, 10]: 17.5 pg/10^5 and 19.3 pg/10^5 and 19.4 pg/10^5
- GM-CSF Concentration [1, 11]: 98.2 pg/mL
- GM-CSF conc/live cell [1, 11]: 18.7 pg/10^5
- GM-CSF Concentration [1, 12]: 103.0 pg/mL and 92.9 pg/mL and 98.8 pg/mL
- GM-CSF conc/live cell [1, 12]: 19.1 pg/10^5 and 16.0 pg/10^5 and 21.0 pg/10^5
- GM-CSF Concentration [1, 13]: 135.7 pg/mL
- GM-CSF conc/live cell [1, 13]: 22.4 pg/10^5
- GM-CSF Concentration [1, 14]: 149.0 pg/mL and 127.8 pg/mL and 130.3 pg/mL
- GM-CSF conc/live cell [1, 14]: 24.4 pg/10^5 and 21.0 pg/10^5 and 21.7 pg/10^5
- Concentration ([2]; 0.001 uM, Mean): 6729.3 pg/mL
- MFI ([2]; 0.001 uM, Mean): 186.6
- conc/live cell ([2]; 0.001 uM, Mean): 1268.0 pg/10^5
- Concentration ([2]; 0.001 uM, single replicates): 6493.4 pg/mL and 6683.4 pg/mL and 7011.0 pg/mL
- MFI ([2]; 0.001 uM, single replicates): 179.8 and 185.3 and 194.8
- conc/live cell ([2]; 0.001 uM, single replicates): 1443.0 pg/10^5 and 1152.3 pg/10^5 and 1208.8 pg/10^5
- Concentration ([2]; 0.01 uM, Mean): 7097.0 pg/mL
- MFI ([2]; 0.01 uM, Mean): 197.3
- conc/live cell ([2]; 0.01 uM, Mean): 1218.8 pg/10^5
- Concentration ([2]; 0.01 uM, single replicates): 7131.5 pg/mL and 6924.8 pg/mL and 7234.7 pg/mL
- MFI ([2]; 0.01 uM, single replicates): 198.3 and 192.3 and 201.3
- conc/live cell ([2]; 0.01 uM, single replicates): 1150.2 pg/10^5 and 1357.8 pg/10^5 and 1148.4 pg/10^5
- Concentration ([2]; 0.1 uM, Mean): 6700.6 pg/mL
- MFI ([2]; 0.1 uM, Mean): 185.8
- conc/live cell ([2]; 0.1 uM, Mean): 1180.6 pg/10^5
- Concentration ([2]; 0.1 uM, single replicates): 6458.9 pg/mL and 6907.6 pg/mL and 6735.2 pg/mL
- MFI ([2]; 0.1 uM, single replicates): 178.8 and 191.8 and 186.8
- conc/live cell ([2]; 0.1 uM, single replicates): 978.6 pg/10^5 and 1381.5 pg/10^5 and 1181.6 pg/10^5
- Concentration ([2]; 1 uM, Mean): 6838.4 pg/mL
- MFI ([2]; 1 uM, Mean): 189.8
- conc/live cell ([2]; 1 uM, Mean): 1364.4 pg/10^5
- Concentration ([2]; 1 uM, single replicates): 6821.4 pg/mL and 7217.5 pg/mL and 6476.2 pg/mL
- MFI ([2]; 1 uM, single replicates): 189.3 and 200.8 and 179.3
- conc/live cell ([2]; 1 uM, single replicates): 1240.3 pg/10^5 and 1503.6 pg/10^5 and 1349.2 pg/10^5
- Concentration ([2]; 10 uM, Mean): 6769.7 pg/mL
- MFI ([2]; 10 uM, Mean): 187.8
- conc/live cell ([2]; 10 uM, Mean): 1286.9 pg/10^5
- Concentration ([2]; 10 uM, single replicates): 6890.4 pg/mL and 6700.7 pg/mL and 6717.9 pg/mL
- MFI ([2]; 10 uM, single replicates): 191.3 and 185.8 and 186.3
- conc/live cell ([2]; 10 uM, single replicates): 1276.0 pg/10^5 and 1155.3 pg/10^5 and 1429.3 pg/10^5
- Concentration ([2]; 100 uM, Mean): 7572.5 pg/mL
- MFI ([2]; 100 uM, Mean): 211.1
- conc/live cell ([2]; 100 uM, Mean): 1247.9 pg/10^5
- Concentration ([2]; 100 uM, single replicates): 7801.4 pg/mL and 7715.7 pg/mL and 7200.3 pg/mL
- MFI ([2]; 100 uM, single replicates): 217.8 and 215.3 and 200.3
- conc/live cell ([2]; 100 uM, single replicates): 1278.9 pg/10^5 and 1264.9 pg/10^5 and 1200.1 pg/10^5
